Source: patent publication US6479493B1, “Methods for treatment of type I diabetes” (Cell Pathways, Inc., priority 2001, dated 2002)
Counter-ions that a name gives are not always drawn.

Target: T1, cGMP binding sites of the GST-cGB-PDE5 fusion protein (Homo sapiens, UniProt O76074)
T1 construct: made in house; host or cells: E. coli BL21 (DE3)
Test: cGMP binding assay with GST-cGB-PDE5 fusion protein
Settings: 3H-cGMP 2 μM, 22° C., 1 hour
Description: RT-PCR method is used to obtain the cGB domain of PDE5 with forward and reverse primers designed from bovine PDE5A cDNA sequence (McAllister-Lucas L. M. et al, J. Biol. Chem. 268, 22863-22873, 1993) and the selection among PDE 1-10 families. 5′-3′, Inc. kits for total RNA followed by oligo (dT) column purification of mRNA are used with HT-29 cells. […] It is then cloned into pGEX-5X-3 glutathione-S-ransferase (GST) fusion vector (Pharmacia Biotech )with tac promoter, and EcoRI and XhoI cut sites. The fusion vector is then transfected into E. Coli BL21 (DE3) bacteria (Invitrogen). The transfected BL21 bacteria is grown to log phase, and then IPTG is added as an inducer. The induction is carried at 20° C. for 24 hrs. The bacteria are harvested and lysed. The soluble cell lysate is incubated with GSH conjugated Sepharose 4B (GSH-Sepharose 4B). The GST-cGB-pDE5 fusion protein can bind to the GSH-Sepharose beads, and the other proteins are washed off from beads with excessive cold PBS.
Then, the mixture is transferred to Brandel MB-24 cell harvester with GF/B as the filter membrane followed by 2 washes with 10 mL of cold 5 mM potassium buffer(pH 6.8). The membranes are then cut out and transferred to scintillation vials followed by the addition of 1 mL of H2O and 6 mL of Ready Safe™ liquid scintillation cocktail to each vial. The vials are counted on a Beckman LS 6500 scintillation counter.
The quenching by filter membrane or other debris are also calibrated.

CC1=C(CC(=O)NCc2ccccc2)c2cc(F)ccc2/C1=C\c1ccncc1 [Example 38, (Z)-5-Fluoro-2-methyl-(4-pyridylidene)-3-(N-benzyl)indenylacetamide Hydrochloride]
competition with cGMP in binding to the cGMP binding sites of GST-cGB-PDE5: does not bind to the cGMP-binding site of PDE5
